Data reported in PubChem BioAssay AID449772 (The Scripps Research Institute Molecular Screening Center, 2010).
Activity calls are given as the source filed them.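 How the source made its calls: active means mass spectrometry shows the compound covalently bound to the catalytic cysteine of glutathione transferase omega 1; inactive means no covalent bond to that cysteine seen.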

Target: Glutathione S-transferase omega-1 (Homo sapiens) (UniProt P78417)
Test: covalent labeling of GSTO1 active site, late-stage follow-up, mechanism study, biophysical, LC-MS/MS (AID 449772)
Conditions: purified GSTO1, LC-MS/MS active-site cysteine labeling

Glutathione S-transferase omega-1 (Homo sapiens), sequence (P78417 whole entry, looked up): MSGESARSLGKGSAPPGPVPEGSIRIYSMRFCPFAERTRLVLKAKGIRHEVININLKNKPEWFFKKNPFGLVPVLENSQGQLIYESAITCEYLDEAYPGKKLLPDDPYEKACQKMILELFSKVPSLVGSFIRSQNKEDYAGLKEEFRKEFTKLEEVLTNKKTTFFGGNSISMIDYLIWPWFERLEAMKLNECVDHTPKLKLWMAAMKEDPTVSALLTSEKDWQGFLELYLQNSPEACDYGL

| outcome | Structure (SMILES) |
| --- | --- |
| active | O=C(NC1CCCCC1)C(c1cccnc1)N(C(=O)CCl)c1ccc(F)cc1 (configuration not stated) |
| active | COc1ccc(C(C(=O)NC2CCCCC2)N(C(=O)CCl)c2cccc(Cl)c2)cc1 (configuration not stated) |
